The source made the active and inactive calls.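 How the source made its calls: active means EC50 at or below 10 micromolar; inactive means EC50 above 10 micromolar.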
Molecular target: 5-hydroxytryptamine receptor 1A (Homo sapiens) (UniProt P08908)
Assay: EC50 of serotonin HTR1A agonism – cell-based, CHO, Ga15 NFAT-bla reporter, dose response (AID 613)
Settings: CHO 5-HT1a Ga15 NFAT-bla reporter, agonist FRET

Sequence of 5-hydroxytryptamine receptor 1A (Homo sapiens) (P08908 whole entry, looked up): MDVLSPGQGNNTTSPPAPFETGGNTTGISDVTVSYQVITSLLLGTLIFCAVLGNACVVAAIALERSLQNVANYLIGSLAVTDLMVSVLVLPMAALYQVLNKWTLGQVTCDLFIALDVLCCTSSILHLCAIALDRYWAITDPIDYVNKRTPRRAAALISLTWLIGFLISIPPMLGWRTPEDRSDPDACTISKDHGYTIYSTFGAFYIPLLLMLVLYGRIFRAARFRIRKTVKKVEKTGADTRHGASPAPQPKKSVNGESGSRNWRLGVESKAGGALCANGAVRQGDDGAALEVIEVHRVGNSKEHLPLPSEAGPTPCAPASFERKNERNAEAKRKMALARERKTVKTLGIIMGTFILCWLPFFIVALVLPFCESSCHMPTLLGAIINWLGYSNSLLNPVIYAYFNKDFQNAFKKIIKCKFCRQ

| Structure (SMILES) | EC50 |
| --- | --- |
| NC(=O)c1cc2ccc(O)cc2oc1=NCc1ccccc1 | inactive |
| COc1ccc(OC)c(N=c2oc3cc(O)ccc3cc2C(N)=O)c1 | > 99 µM (inactive) |
| CCOC(=O)c1sc2c(c1C)C(c1cccs1)C1=C(CCCC1=O)N2 (stereo unspecified) | > 33 µM (inactive) |
| Cc1ccc(N2C(=O)CC(N3CCN(C4CCc5ccccc5C4)CC3)C2=O)cc1 (stereo unspecified) | > 99 µM (inactive) |
| CCCCCCc1cc2cc(-c3nnc(-c4ccccc4O)o3)c(=O)oc2cc1O | > 99 µM (inactive) |
| CCSCCOC(=O)C1=C(C)NC(=O)NC1c1ccc2c(c1)OCO2 (stereo unspecified) | > 99 µM (inactive) |
| COCCOC(=O)C1=C(C)Nc2nc(C)nn2C1c1ccc(F)cc1 (stereo unspecified) | > 99 µM (inactive) |
| COc1ccccc1N=c1oc2cc(O)ccc2cc1C(N)=O | inactive |
| Cc1ccc(C2C3CN(C(C)C)CC=C3C(C#N)=C(N)C2(C#N)C#N)cc1 (stereo unspecified) | inactive |
| COc1ccc(N=c2oc3cc(O)ccc3cc2C(=O)NCC2CCCO2)cc1 (stereo unspecified) | > 99 µM (inactive) |
| CC(C)N1CC=C2C(C#N)=C(N)C(C#N)(C#N)C(c3ccccc3)C2C1 (stereo unspecified) | inactive |
| CCCCOc1ccc(C2C3CN(C(=O)OCC)CC=C3C(C#N)=C(N)C2(C#N)C#N)cc1OC (stereo unspecified) | > 99 µM (inactive) |
| CN(C)CCCN1C(=O)C(=O)/C(=C(/O)c2ccc3c(c2)OCCO3)C1c1ccccn1 (stereo unspecified) | > 99 µM (inactive) |
| NC(=O)c1cc2ccc(O)cc2oc1=Nc1ccccc1 | inactive |
| N#CC1=C(N)N(c2ccccc2)C(c2ccco2)C1(C#N)C#N (stereo unspecified) | > 99 µM (inactive) |
| CCN(CC)c1ccc2cc(C(=O)Nc3ccccn3)c(=O)oc2c1 | > 99 µM (inactive) |
| C=CCOc1cccc(C2C(C(=O)c3ccco3)=C(O)C(=O)N2CCN(CC)CC)c1 (stereo unspecified) | > 99 µM (inactive) |
| CCCCCCc1cc2cc(C(=O)NC)c(=N)oc2cc1O | inactive |
| CN(C)c1ccc(C2C=C(c3ccc(Cl)cc3OC(F)F)Nc3ncnn32)cc1 (stereo unspecified) | > 99 µM (inactive) |
| COc1ccccc1N=c1oc2cc(O)ccc2cc1C(=O)NCC1CCCO1 (stereo unspecified) | inactive |
| Nc1nonc1/C(=N/O)N1CCCC1 | > 99 µM (inactive) |
| Cc1cccc(N=c2oc3cc(O)ccc3cc2C(N)=O)c1 | inactive |
| COc1ccc(N=c2oc3cc(O)ccc3cc2C(=O)NCC2CCCO2)c(OC)c1 (stereo unspecified) | > 99 µM (inactive) |
| N#C/C(=C(/O)COC(=O)Cc1c[nH]c2ccccc12)c1nc2ccccc2[nH]1 | > 99 µM (inactive) |
| Cc1noc(NS(=O)(=O)c2ccc(N3CC(O)=C(c4ccccc4)C3=N)cc2)c1C | > 99 µM (inactive) |
| Cc1ccc(N=c2oc3cc(O)ccc3cc2C(N)=O)cc1 | inactive |

Source: PubChem BioAssay AID613 (The Scripps Research Institute Molecular Screening Center, 2007)
